Source: US20120270237A9, “METHODS FOR THE IDENTIFICATION OF KINASE INTERACTING MOLECULES AND FOR THE PURIFICATION OF KINASE PROTEINS” (Cellzone AG, priority 2009, published 2012)

Assays:
Assay in all cases: Kinobeads competition binding, L-363 cell lysate
Details in all cases: 10 μM free compound, L-363 lysate
JAK3 = target: T1, JAK3 (Homo sapiens, UniProt P52333)
T1 construct: capturing and identification of kinases from L-363 cell lysate; endogenous in cells; host or cells: L-363 (DSMZ ACC49), treated with MG132 before harvest
T1 sequence (P52333 whole entry): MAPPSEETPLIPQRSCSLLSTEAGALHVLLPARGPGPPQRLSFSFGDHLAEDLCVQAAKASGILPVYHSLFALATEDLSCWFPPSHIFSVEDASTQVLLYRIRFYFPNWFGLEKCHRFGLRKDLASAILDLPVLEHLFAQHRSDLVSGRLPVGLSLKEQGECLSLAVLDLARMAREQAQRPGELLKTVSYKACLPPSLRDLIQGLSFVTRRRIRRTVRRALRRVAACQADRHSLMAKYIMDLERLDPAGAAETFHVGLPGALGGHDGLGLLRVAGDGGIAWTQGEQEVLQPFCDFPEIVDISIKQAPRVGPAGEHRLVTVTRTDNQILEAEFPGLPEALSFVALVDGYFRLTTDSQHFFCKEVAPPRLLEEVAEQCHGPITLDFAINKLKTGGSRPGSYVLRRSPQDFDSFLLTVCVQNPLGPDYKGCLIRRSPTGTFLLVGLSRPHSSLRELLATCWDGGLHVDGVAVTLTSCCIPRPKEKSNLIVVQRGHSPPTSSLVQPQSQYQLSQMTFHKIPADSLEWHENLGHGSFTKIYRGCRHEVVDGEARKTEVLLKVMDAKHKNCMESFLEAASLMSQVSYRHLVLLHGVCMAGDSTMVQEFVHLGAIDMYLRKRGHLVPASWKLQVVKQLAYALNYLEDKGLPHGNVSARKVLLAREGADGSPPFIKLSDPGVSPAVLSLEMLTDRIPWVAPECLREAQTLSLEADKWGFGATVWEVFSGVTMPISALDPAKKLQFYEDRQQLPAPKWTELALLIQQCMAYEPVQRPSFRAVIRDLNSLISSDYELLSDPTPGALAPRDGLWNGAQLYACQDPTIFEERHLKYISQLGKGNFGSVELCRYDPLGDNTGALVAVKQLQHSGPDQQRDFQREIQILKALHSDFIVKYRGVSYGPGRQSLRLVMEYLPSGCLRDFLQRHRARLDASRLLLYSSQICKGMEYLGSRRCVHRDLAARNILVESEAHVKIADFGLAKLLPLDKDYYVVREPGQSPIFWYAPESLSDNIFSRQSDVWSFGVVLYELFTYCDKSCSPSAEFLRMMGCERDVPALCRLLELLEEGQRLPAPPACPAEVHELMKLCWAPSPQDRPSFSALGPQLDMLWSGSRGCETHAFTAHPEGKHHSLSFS
Experimental: (§1) To one aliquot of cell lysate 10 μM of the free compound (FIG. 3, CZC31326) was added and allowed to bind to proteins in the lysate. Then the affinity matrix with the immobilized compound was added to capture proteins that were not interacting with the previously added free compound. Beads were separated from the lysate and bead bound proteins were eluted in SDS sample buffer and subsequently separated by SDS-Polyacrylamide gel electrophoresis (FIG. 8). Suitable gel bands were cut out and subjected to in-gel proteolytic digestion with trypsin. The second lysate aliquot was processed identically, however no free compound was added (DMSO solvent control). Peptides originating from samples 1 and 2 were labeled with iTRAQ reagents (iTRAQ 114 and iTRAQ 117) and the combined samples were analyzed with a nano-flow liquid chromatography system coupled online to a tandem mass spectrometer (LC-MS/MS) experiment followed by iTRAQ reporter ion quantification in the MS/MS spectra as described in Example 2.
(§2) For this experiment the human plasma cell leukaemia line L-363 was used (German Collection of Microorganisms and Cell Cultures, DSMZ number ACC49, Braunschweig, Germany). Cells were treated for three hours with 20 μM of the proteasome inhibitor MG132 (Z-Leu-Leu-Leu-al, Sigma C2211) prior to cell harvesting.

NEK1 = target: T2, NEK1 (Homo sapiens, UniProt Q96PY6)
T2 construct: capturing and identification of kinases from L-363 cell lysate; endogenous in cells; host or cells: L-363 (DSMZ ACC49), treated with MG132 before harvest
Experimental: as §1, §2

DRAK2 = target: T3, DRAK2 (Homo sapiens, UniProt O94768)
T3 construct: capturing and identification of kinases from L-363 cell lysate; endogenous in cells; host or cells: L-363 (DSMZ ACC49), treated with MG132 before harvest
T3 sequence (O94768 whole entry): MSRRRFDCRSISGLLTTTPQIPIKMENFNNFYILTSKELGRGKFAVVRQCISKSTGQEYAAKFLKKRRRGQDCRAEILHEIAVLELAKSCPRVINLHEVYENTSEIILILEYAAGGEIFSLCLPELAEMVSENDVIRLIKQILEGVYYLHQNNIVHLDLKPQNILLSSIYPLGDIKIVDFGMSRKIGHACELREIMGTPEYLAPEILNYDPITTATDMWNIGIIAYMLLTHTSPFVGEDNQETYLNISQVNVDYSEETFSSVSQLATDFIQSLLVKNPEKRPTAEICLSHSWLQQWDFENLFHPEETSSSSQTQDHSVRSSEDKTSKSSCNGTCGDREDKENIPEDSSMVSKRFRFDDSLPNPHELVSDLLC
Experimental: as §1, §2

SLK = SLK (Homo sapiens, UniProt Q9H2G2)
Sequence of SLK (Q9H2G2 whole entry): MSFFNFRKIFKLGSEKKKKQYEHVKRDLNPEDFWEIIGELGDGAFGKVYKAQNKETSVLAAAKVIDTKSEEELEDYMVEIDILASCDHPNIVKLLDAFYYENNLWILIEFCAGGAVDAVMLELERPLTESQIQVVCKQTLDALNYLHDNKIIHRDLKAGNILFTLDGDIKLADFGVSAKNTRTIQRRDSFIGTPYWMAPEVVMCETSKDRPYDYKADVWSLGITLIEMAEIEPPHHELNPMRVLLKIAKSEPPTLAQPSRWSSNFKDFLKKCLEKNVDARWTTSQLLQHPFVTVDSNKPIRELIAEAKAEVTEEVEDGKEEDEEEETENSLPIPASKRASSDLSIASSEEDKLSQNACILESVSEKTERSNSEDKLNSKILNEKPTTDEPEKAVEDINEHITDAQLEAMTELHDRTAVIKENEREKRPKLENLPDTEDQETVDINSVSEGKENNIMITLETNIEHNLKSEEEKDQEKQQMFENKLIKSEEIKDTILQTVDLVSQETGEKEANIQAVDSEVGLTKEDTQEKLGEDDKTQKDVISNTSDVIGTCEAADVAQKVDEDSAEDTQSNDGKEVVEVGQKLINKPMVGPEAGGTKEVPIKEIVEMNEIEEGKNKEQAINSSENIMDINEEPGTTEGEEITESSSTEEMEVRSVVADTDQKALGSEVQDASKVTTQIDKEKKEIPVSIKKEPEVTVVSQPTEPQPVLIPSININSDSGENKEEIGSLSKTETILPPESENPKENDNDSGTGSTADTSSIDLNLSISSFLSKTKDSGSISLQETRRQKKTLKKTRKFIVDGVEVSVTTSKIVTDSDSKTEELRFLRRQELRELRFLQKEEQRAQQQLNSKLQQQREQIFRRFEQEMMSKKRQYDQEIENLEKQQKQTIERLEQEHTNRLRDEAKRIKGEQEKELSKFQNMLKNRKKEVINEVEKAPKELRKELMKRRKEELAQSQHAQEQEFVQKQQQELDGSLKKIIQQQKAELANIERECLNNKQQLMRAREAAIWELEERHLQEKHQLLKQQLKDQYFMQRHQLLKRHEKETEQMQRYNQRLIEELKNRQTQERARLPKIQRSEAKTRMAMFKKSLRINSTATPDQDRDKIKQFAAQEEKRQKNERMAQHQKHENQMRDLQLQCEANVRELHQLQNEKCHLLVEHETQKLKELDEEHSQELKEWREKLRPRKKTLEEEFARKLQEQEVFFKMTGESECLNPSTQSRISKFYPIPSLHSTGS
Experimental: as §1, §2

PIK4Ca = target: T4, PIK4Ca (Homo sapiens, UniProt P42356)
T4 construct: capturing and identification of kinases from L-363 cell lysate; endogenous in cells; host or cells: L-363 (DSMZ ACC49), treated with MG132 before harvest
Experimental: as §1, §2

NIK = target: T5, NIK (Homo sapiens, UniProt Q99558)
T5 construct: capturing and identification of kinases from L-363 cell lysate; endogenous in cells; host or cells: L-363 (DSMZ ACC49), treated 3 h with 20 uM MG132 before harvest
T5 sequence (Q99558 whole entry): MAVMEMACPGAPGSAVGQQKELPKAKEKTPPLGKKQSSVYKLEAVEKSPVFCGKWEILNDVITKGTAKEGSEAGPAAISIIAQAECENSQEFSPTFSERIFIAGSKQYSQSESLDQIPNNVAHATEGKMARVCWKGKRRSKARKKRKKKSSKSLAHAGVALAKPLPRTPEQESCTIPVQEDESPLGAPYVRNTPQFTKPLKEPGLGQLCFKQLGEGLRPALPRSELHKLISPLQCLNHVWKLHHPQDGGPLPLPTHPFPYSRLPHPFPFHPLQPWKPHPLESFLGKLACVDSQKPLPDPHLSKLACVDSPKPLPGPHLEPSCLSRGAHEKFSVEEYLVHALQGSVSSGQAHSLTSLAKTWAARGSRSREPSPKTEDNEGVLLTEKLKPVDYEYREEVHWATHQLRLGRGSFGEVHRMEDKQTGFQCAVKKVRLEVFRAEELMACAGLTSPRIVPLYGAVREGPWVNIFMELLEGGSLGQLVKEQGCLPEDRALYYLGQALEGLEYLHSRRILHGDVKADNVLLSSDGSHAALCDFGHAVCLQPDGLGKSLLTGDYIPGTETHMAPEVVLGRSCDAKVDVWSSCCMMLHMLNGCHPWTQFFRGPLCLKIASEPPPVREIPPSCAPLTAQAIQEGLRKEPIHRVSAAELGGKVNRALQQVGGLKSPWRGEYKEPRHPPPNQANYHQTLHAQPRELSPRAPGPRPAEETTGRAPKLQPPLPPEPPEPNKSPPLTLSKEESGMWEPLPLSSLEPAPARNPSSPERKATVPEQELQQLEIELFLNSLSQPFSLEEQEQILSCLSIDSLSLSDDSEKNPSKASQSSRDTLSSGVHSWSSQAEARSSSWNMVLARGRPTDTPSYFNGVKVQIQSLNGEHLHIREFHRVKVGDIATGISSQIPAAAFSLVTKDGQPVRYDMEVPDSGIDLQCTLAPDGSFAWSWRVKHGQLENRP
Experimental: as §1, §2

NuaK2 = target: T6, NuaK2 (Homo sapiens, UniProt Q9H093)
T6 construct: capturing and identification of kinases from L-363 cell lysate; endogenous in cells; host or cells: L-363 (DSMZ ACC49), treated with MG132 before harvest
T6 sequence (Q9H093 whole entry): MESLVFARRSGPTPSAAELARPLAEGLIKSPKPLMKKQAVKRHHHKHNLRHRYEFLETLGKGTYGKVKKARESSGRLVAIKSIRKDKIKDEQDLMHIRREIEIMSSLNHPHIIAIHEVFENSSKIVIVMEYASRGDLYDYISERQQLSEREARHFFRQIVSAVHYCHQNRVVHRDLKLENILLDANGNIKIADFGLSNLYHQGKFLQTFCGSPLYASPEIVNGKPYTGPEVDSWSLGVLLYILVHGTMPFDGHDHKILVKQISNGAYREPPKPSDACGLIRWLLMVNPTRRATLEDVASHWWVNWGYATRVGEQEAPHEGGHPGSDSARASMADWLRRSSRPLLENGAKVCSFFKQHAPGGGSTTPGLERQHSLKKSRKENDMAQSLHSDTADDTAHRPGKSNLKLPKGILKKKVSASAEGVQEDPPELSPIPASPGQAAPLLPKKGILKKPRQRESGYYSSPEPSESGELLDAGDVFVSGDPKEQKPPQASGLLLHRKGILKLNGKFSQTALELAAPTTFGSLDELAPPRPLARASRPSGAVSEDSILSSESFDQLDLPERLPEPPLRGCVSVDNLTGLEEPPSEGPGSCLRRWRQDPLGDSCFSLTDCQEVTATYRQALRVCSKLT
Experimental: as §1, §2

HRI = target: T7, HRI (Homo sapiens, UniProt Q9BQI3)
T7 construct: capturing and identification of kinases from L-363 cell lysate; endogenous in cells; host or cells: L-363 (DSMZ ACC49), treated with MG132 before harvest
Experimental: as §1, §2

RSK4 = target: T8, RSK4 (Homo sapiens, UniProt Q9UK32)
T8 construct: endogenous in cells; host or cells: L-363 (DSMZ ACC49), treated with MG132 before harvest
T8 sequence (Q9UK32 whole entry): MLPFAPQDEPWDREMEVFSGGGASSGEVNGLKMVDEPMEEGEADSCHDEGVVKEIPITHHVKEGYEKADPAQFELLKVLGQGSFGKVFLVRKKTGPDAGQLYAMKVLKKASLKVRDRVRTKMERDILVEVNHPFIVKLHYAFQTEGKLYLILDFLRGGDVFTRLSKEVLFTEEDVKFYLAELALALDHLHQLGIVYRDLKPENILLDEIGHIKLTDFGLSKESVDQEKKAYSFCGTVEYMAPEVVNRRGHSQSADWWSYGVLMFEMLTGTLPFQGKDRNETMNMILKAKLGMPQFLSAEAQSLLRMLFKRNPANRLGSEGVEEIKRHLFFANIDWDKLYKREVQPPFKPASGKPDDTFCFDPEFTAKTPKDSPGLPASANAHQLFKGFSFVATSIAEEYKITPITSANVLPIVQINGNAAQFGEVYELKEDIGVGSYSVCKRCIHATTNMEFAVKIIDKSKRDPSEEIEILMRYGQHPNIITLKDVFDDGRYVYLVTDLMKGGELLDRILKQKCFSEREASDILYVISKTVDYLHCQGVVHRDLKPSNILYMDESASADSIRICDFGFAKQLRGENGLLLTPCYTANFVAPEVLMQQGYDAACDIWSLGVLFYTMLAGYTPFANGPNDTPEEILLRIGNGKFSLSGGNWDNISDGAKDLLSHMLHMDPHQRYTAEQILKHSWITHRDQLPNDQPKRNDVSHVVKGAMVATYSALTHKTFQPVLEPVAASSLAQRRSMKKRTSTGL
Experimental: as §1, §2

ULK3 = target: T9, ULK3 (Homo sapiens, UniProt Q6PHR2)
T9 sequence (Q6PHR2 1-472): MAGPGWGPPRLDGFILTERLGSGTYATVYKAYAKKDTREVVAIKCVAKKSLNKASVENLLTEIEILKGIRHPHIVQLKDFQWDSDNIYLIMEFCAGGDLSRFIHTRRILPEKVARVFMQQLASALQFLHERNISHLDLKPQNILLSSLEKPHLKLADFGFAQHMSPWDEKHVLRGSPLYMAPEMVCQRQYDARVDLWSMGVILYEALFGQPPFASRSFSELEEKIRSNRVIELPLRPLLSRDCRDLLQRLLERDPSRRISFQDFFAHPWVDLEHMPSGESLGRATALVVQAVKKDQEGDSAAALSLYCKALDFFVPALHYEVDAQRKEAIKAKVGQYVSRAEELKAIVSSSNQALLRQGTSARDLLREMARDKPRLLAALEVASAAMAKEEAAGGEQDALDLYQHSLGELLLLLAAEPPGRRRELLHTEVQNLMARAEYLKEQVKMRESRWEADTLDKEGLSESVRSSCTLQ
Experimental: as §1, §2

DYRK1A = target: T10, DYRK1A (Homo sapiens, UniProt Q13627)
T10 construct: capturing and identification of kinases from L-363 cell lysate; endogenous in cells; host or cells: L-363 (DSMZ ACC49), treated with MG132 before harvest
Experimental: as §1, §2

ADCK1 = target: T11, ADCK1 (Homo sapiens, UniProt Q86TW2)
T11 construct: capturing and identification of kinases from L-363 cell lysate; endogenous in cells; host or cells: L-363 (treated with MG132 before harvest)
Experimental: as §1, §2

inhibition at 10 µM (JAK3): 98.1%
inhibition at 10 µM (NEK1): 95.7%
inhibition at 10 µM (DRAK2): 93.3%
inhibition at 10 µM (SLK): 95%
inhibition at 10 µM (PIK4Ca): 86%
inhibition at 10 µM (NIK): 98%
Competition % (NuaK2): 96.7%
inhibition at 10 µM (HRI): 95.8%
Competition % (RSK4): 96.7%
Competition % (ULK3): 98.5%
inhibition at 10 µM (DYRK1A): 96.5%
inhibition at 10 µM (ADCK1): 93.8%
Structure (SMILES): CS(=O)(=O)Nc1ccccc1Nc1nc(Nc2cccc(OCCN)c2)ncc1Cl [CZC31326, N-(2-(2-(3-(2-aminoethoxy)phenylamino)-5-chloropyrimidin-4-ylamino)phenyl)methanesulfonamide]
